Data: a compilation of properties of binary mixtures (doi:10.1021/jp911536z)

Assay: xn = mol fraction of the nth substance listed
Conditions: 298.15 K, 100 kPa

CCn1cc[n+](C)c1.C[C@H](O)C(=O)[O-] + O
electrical conductivity (x1 = 0.0056): 0.329 S/m | speed of sound (x1 = 0.0097): 1567.3 m/s | viscosity (x1 = 0.0097): 1.17 mPa·s | speed of sound (x1 = 0.0197): 1631 m/s | viscosity (x1 = 0.0197): 1.44 mPa·s | speed of sound (x2 = 0.0056): 1731.4 m/s | electrical conductivity (x2 = 0.0097): 1.76 S/m | electrical conductivity (x2 = 0.0197): 2.71 S/m | electrical conductivity (x2 = 0.0304): 3.15 S/m | electrical conductivity (x2 = 0.0374): 3.28 S/m | speed of sound (x2 = 0.0464): 1735.1 m/s | viscosity (x2 = 0.0464): 110 mPa·s | electrical conductivity (x2 = 0.0739): 3.02 S/m | electrical conductivity (x2 = 0.094): 2.75 S/m | speed of sound (x2 = 0.0982): 1738.6 m/s | viscosity (x2 = 0.0982): 60.5 mPa·s | electrical conductivity (x2 = 0.2881): 1.07 S/m | electrical conductivity (x2 = 0.4781): 0.597 S/m | speed of sound (x2 = 0.5219): 1797.9 m/s | viscosity (x2 = 0.5219): 18.5 mPa·s | electrical conductivity (x2 = 0.6862): 0.481 S/m | speed of sound (x2 = 0.7119): 1826.6 m/s | viscosity (x2 = 0.7119): 11.3 mPa·s | electrical conductivity (x2 = 0.9018): 0.259 S/m | speed of sound (x2 = 0.906): 1842.9 m/s | viscosity (x2 = 0.906): 5.65 mPa·s | speed of sound (x2 = 0.9261): 1819.8 m/s | viscosity (x2 = 0.9261): 4.36 mPa·s | electrical conductivity (x2 = 0.9536): 0.289 S/m | speed of sound (x2 = 0.9547): 1748.4 m/s | viscosity (x2 = 0.9547): 2.68 mPa·s | speed of sound (x2 = 0.9626): 1719.9 m/s | viscosity (x2 = 0.9626): 2.23 mPa·s
